One data set relates to gastric ulcers in rats. As to the kind of experiment: Gastrointestinal effects: induction of ulcers in rats submitted to cold stress. Format: in vivo. The settings on record: rat, po; for Maximum non-Ulcerogenic dose: linear regression of dose-response. As to the method:
Gastrointestinal Effects (GI): Induction of Ulcers in Rats Submitted to Cold Stress
In this assay possible ulcerogenic effects at a gastrointestinal level were determined after oral administration. […] Firstly the rats received the products under study orally at different doses. After two hours had elapsed the rats were placed in a chest freezer at −15° C. for 1 hour. Afterwards they were left for 1 hour at room temperature The animals were then sacrificed and the stomach extracted. The stomach was kept in saline solution for 15 minutes After this time the percentage of surface area with gastric ulcers was determined using a Project C.S.V. vs 1.2 image analyser for each stomach.

Data set [1] relates to COX-2/COX-1 (PGE2 in inflammatory exudate). In words: Inhibition of the synthesis of prostaglandins (PGE2) in inflammatory exudate in rat, carrageenan sponge. The settings on record: for inhibition at 40 mg/kg: read-out: Inhibition of PGE2, Inflammatory exudate; for ED50: read-out: ED-50, Inhibition of PGE2, Inflammatory exudate. Format: in vivo. The procedure:
(§1) Inhibition of the Synthesis of Prostaglandins in Inflammatory Exudate and Mucus Membrane in Rat
(§2) The products under study are administered orally at an initial screening dose of 40 mg/kg One hour after treatment the rats were anaesthetised and a sponge soaked in carrageenan was implanted subcutaneously in the interscapular zone. Six hours after implantation the rats were sacrificed and the interscapular sponges extracted as well as gastric mucuous. Next the PGE2 content was determined by immunoassay for each one of the samples, in the sponge exudate on the one hand and in the gastric mucus on the other.

Data set [2] deals with COX-1 (PGE2 in gastric mucus). As to the kind of experiment: Inhibition of the synthesis of prostaglandins (PGE2) in gastric mucus in rat. The conditions noted are these: for inhibition at 40 mg/kg: read-out: Inhibition of PGE2, Gastric mucus; for ED50: read-out: ED-50, Inhibition of PGE2, Gastric mucus. Format: in vivo. The procedure:
as §1, §2

Data set [3] concerns carrageenan pre-inflamed rat paw. In words: Analgesic activity against hyperalgesia by thermal stimulus of pre-inflamed rat paw. It counts as in vivo. The conditions noted are these: for % Activity, analgesic activity against hyperalgesia by thermal stimulus: dose 40 mg/kg po, 2 h after treatment; for ED50: po, read-out: ED-50 of analgesic activity against hyperalgesia by thermal stimulus. The procedure:
Analgesic Activity Against “Hyperalgesia” by Thermal Stimulus of Pre-inflamed Rat Paw
In this assay the analgesic activity in rat was monitored following the method described by K. Hargreaves et al. (Pain, 1988, 32, 77-78). Firstly, a suspension of carrageenan was injected into the back right paw of each rat. After two hours the products under study were administered orally at a screening dose of 40 mg/kg. Two hours after treatment a heat source was applied to the sole of each back paw of the rats and the time measured that they took to remove the paw measured. Hyperalgesia was determined by comparing the percentage of algesia of the paw injected with carrageenan to the other back paw. The analgesic activity was calculated comparing these hyperalgesia values of the groups treated with product with those of the group treated with the vehicle only.

For data set [4], the system named is secondary inflammation of paw (experimental arthritis). In words: Anti-arthritic activity in rat (Freund adjuvant). It counts as in vivo. The conditions noted are these: 10 mg/kg/day po for 11 days. As to the method:
Anti-arthritic Activity in Rat
In this study the anti-arthritic activity in rat of the compound of example 3 has been studied. To do so the method described by B. J. Jaffee et al. (Agents and Actions, 1989, 27, 344-346) was followed. Firstly, the Freund adjuvant was injected (Mycobacterium butiricum suspended in soy-bean oil) through the sub-sole of the back left paw of the rats. After 14 days, when the secondary inflammation had developed in the uninjected paw, which is considered the experimental arthritis, treatment with the product under study or with the vehicle for the control group was started. The compound of example 3 was administered orally at a dose of 10 mg/kg/day for 11 days. The volume of the paw with secondary inflammation in the last days of treatment was measured. The anti-arthritic activity was calculated by comparing the average volume of the paw with secondary inflammation of the group treated with the compound of example 3 and the control group for 5 days.

Experimental findings from USRE38963E1, “Pyrazoline derivatives, their preparation and application as medicaments” (Laboratorios del Dr. Esteve, priority 1998, dated 2006) are described below.

Where two headings read alike, the source gives them in different places. Bounds are passed on as bounds.

Consider `CN1C(C(=O)Nc2ccccn2)=C(O)c2ccccc2S1(=O)=O` [Piroxicam], for which the “Ulcerogenic effects (in words)” value in the data set with gastric ulcers in rats (in vivo) was “exhibited ulcerogenic effects at very low doses”. In addition, in the data set on gastric ulcers in rats (cold stress), the “Maximum non-Ulcerogenic dose” value was determined as 1.7 mg/kg.
For `CC(=O)NS(=O)(=O)c1ccc(N2N=C(C(F)(F)F)CC2c2ccc(F)cc2F)cc1` (centres unmarked) [Example 64, 1-(4-acetylaminosulphonylphenyl)-5-(2,4-difluorophenyl)-4,5-dihydro-3-trifluoromethyl-1H-pyrazole], the melting point was in the range of 172 to 174 °C.
`Cc1ccc(C2CC(C#N)=NN2c2ccc(S(C)(=O)=O)cc2)cc1` (centres unmarked) [Example 43, 3-cyano-4,5-dihydro-5-(4-methylphenyl)-1-(4-methylsulphonylphenyl)-1H-pyrazole]: the melting point lay within 162 to 164 °C.
With `CC(=O)NS(=O)(=O)c1ccc(N2N=C(C(F)(F)F)CC2c2ccc(F)cc2F)cc1` (centres unmarked) [Example 8, 1-(4-acetylaminosulphonylphenyl)-5-(2,4-difluorophenyl)-4,5-dihydro-3-trifluoromethyl-1H-pyrazole], the melting point is 154 to 156 °C.
`COC(=O)C1=NN(c2ccc(S(C)(=O)=O)cc2)C(c2ccc(C)cc2)C1` (centres unmarked) [Example 5, methyl 4,5-dihydro-5-(4-methylphenyl)-1-(4-methylsulphonylphenyl)-1H-pyrazole-3-carboxylate] displayed a melting point of 156 to 157 °C.
The compound `Cc1ccc(C2CC(C(F)(F)F)=NN2c2ccc(S(N)(=O)=O)cc2)cc1` (centres unmarked) [Example 1, 1-(4-Aminosulphonylphenyl)-4,5-dihydro-5-(4-metylphenyl)-3-trifluoromethyl-1H-pyrazole] yielded a melting point of 140 to 143 °C.
As for `COc1ccc2cc(CCC(C)=O)ccc2c1` [Nabumetone], the inhibition at 40 mg/kg in data set [1] (rat, dose 40 mg/kg po) turned out to be 93%; in data set [2] (rat, dose 40 mg/kg po), 0%. Moreover, the ED50 in data set [1] (rat, po) is 110 mg/kg; in data set [2] (rat, po), over 40 mg/kg; in data set [3] it was 2.1 mg/kg. Moreover, the “% Activity, analgesic activity against hyperalgesia by thermal stimulus” value (from here on “% Activity, analgesic activity”) in data set [3] came out at 95%.
Consider `Cc1ccc(C2CC(C#N)=NN2c2ccc(S(C)(=O)=O)cc2)cc1` (centres unmarked) [Example 7, 3-cyano-4,5-dihydro-5-(4-methylphenyl)-1-(4-methylsulphonylphenyl)-1H-pyrazole], for which the melting point is 115 to 119 °C.
In the case of `Cc1cnc(NC(=O)C2=C(O)c3ccccc3S(=O)(=O)N2C)s1` [Meloxicam], the inhibition at 40 mg/kg worked out at 97% in data set [1] (Rattus norvegicus, po) and 65% in data set [2] (Rattus norvegicus, po).
`Cc1ccc(C2CC(C(N)=O)=NN2c2ccc(S(N)(=O)=O)cc2)cc1` (centres unmarked) [Example 6, 1-(4-aminosulphonylphenyl)-4,5-dihydro-5-(4-methylphenyl)-1H-pyrazole-3-carboxamide] yielded a melting point of 137 to 140 °C.
On to `Cc1ccc(C2CC(C(N)=O)=NN2c2ccc(S(C)(=O)=O)cc2)cc1` (centres unmarked) [Example 42, 4,5-dihydro-5-(4-methylphenyl)-1-(4-methylsulphonylphenyl)-1H-pyrazole-3-carboxamide], for which the melting point lay within 128 to 132 °C.
Turning to `Cc1ccc(C2CC(C(=O)O)=NN2c2ccc(S(N)(=O)=O)cc2)cc1` (centres unmarked) [Example 34, 1-(4-aminosulphonylphenyl)-4,5-dihydro-5-(4-methylphenyl)-1H-pyrazole-3-carboxylic acid], the melting point was 172 to 176 °C.
With `CC1(c2ccccc2)CC(C(F)(F)F)=NN1c1ccc(S(N)(=O)=O)cc1` (centres unmarked) [Example 2, 1-(4-Aminosulphonylphenyl)-4,5-dihydro-5-phenyl-5-methyl-3-trifluoromethyl-1H-pyrazole], the melting point is 60 to 66 °C.
Consider `O=C(O)Cc1ccccc1Nc1c(Cl)cccc1Cl` [Dichlophenac], for which, in the data set with gastric ulcers in rats (cold stress), the “Ulcerogenic effects (in words)” value is “exhibited ulcerogenic effects at very low doses” and the “Maximum non-Ulcerogenic dose” value turned out to be 1.2 mg/kg.
The compound `COC(=O)C1=NN(c2ccc(S(C)(=O)=O)cc2)C(c2ccc(C)cc2)C1` (centres unmarked) [Example 39, methyl 4,5-dihydro-5-(4-methylphenyl)-1-(4-methylsulphonylphenyl)-1H-pyrazole-3-carboxylate] showed a melting point of 155 to 160 °C.
Consider `Cc1ccc(C2CC(C(N)=O)=NN2c2ccc(S(N)(=O)=O)cc2)cc1` (centres unmarked) [Example 41, 1-(4-aminosulphonylphenyl)-4,5-dihydro-5-(4-methylphenyl)-1H-pyrazole-3-carboxamide], for which the melting point fell in the range of 210 to 215 °C.
Take `NS(=O)(=O)c1ccc(N2N=C(C(F)(F)F)CC2c2ccc(F)cc2F)cc1` (centres unmarked) [Example 3, 1-(4-aminosulphonylphenyl)-5-(2,4-difluorophenyl)-4,5-dihydro-3-trifluoro methyl-1H-pyrazole]: the “Inhibition of secondary inflammation (anti-arthritic activity)” value in data set [4] is recorded as 71%. The “Ulcerogenic effects (in words)” value in the data set with gastric ulcers in rats (in vivo) is “not to have ulcerogenic effects, even at very high doses”. The “Maximum non-Ulcerogenic dose” value with gastric ulcers in rats (cold stress) is listed as over 80 mg/kg. Moreover, the inhibition at 40 mg/kg is 92% in data set [1] (rat, dose 40 mg/kg po) and 0% in data set [2] (rat, dose 40 mg/kg po). The ED50 in data set [1] (rat, po) was 36 mg/kg; in data set [2] (rat, po), over 40 mg/kg; in data set [3] it was 0.2 mg/kg. Besides, the “% Activity, analgesic activity” value in data set [3] is recorded as 100%.
With `CS(=O)(=O)Nc1ccc([N+](=O)[O-])cc1Oc1ccccc1` [Nimesulide], in data set [3], the “% Activity, analgesic activity” value amounted to 97% and the ED50 worked out at 1 mg/kg.
